{"source": "patent US10836735B2", "about": "“Compositions and methods for treating cancers” (CEDARS-SINAI MEDICAL CENTER, priority 2014, dated 2020)", "key": {"[1]": {"tested_on": "MIA PaCa-2 pancreatic cancer cell line", "test": "Western: EMT and cancer stemness markers", "type": "cell-based", "conditions": "MIA PaCa-2, 72", "method": "(§1) Cells were cultured in the presence or absence of different doses of ALB-185357 for 72 and protein levels measured by Western (FIG. 22A) and cell invasion measured in Matrigel Invasion Chambers (FIG. 22B)."}, "[2]": {"tested_on": "MIA PaCa-2 pancreatic cancer cell line", "test": "Cell invasion in Matrigel Invasion Chambers", "type": "cell-based", "conditions": "MIA PaCa-2, Matrigel Invasion Chambers", "method": "as §1"}, "Raji lymphoma cells": {"tested_on": "Raji lymphoma cells", "test": "Cell survival by counting cell number", "type": "cell-based", "conditions": "72", "method": "(§2) Cells were cultured in the presence or absence of different doses of ALB-185357 for 72 and cell survival measured by MTT assay (FIGS. 17 and 18) or by counting cell number (FIG. 19)."}, "[3]": {"tested_on": "normal pancreatic ductal cells", "test": "Cell survival of normal cells by MTT assay", "type": "cell-based", "conditions": "72", "method": "Cells were cultured in the presence or absence of different doses of ALB-185357 for 72 and cell survival measured by MTT assay."}, "[4]": {"tested_on": "MIA PaCa-2 pancreatic cancer cell line", "test": "Western: histone acetylation and GSK-3β phosphorylation/inhibition", "type": "cell-based", "conditions": "MIA PaCa-2, 72", "method": "Cells were cultured in the presence or absence of different doses of ALB-185357 for 72 and protein levels measured by Western."}, "[5]": {"tested_on": "MIA PaCa-2 pancreatic cancer cell line", "test": "Apoptosis by DNA fragmentation", "type": "cell-based", "conditions": "MIA PaCa-2, 72", "method": "Dashed lane represents the expected additive effect (Significance between expected additive effect and observed effect is achieved at 2.4 uM).\nMIA PaCa-2 cells were cultured in the presence or absence of different doses of ALB-185357 for 72 and apoptosis assessed by measuring DNA fragmentation.\nMIA PaCa-2 cells were cultured in the presence or absence of different doses of ALB-185357 or gemcitabine at the low dose of 1 ng/ml for 72 and apoptosis assessed by measuring DNA fragmentation."}, "[6]": {"tested_on": "hepatocellular carcinoma HepG2 cells", "test": "Cell survival by MTT assay", "type": "cell-based", "conditions": "HepG2, 72", "method": "as §2"}, "[7]": {"tested_on": "BT474 breast cancer cells", "test": "Cell survival by MTT assay", "type": "cell-based", "conditions": "BT474, 72", "method": "as §2"}, "KPC mice": {"tested_on": "KPC mice", "test": "Survival of KPC mice with pancreatic adenocarcinoma", "type": "in vivo", "conditions": "5 mg/Kg ip 3 times per week from age 8 weeks until death", "method": "KPC mice, which have Kras and p53 mutations and spontaneously develop pancreatic adenocarcinoma, were ip injected 3 times per week with 5 mg/Kg of ALB185357 from age 8 weeks until death."}, "[8]": {"tested_on": "BxPC-3 pancreatic cancer cell line", "test": "Cell survival by MTT assay", "type": "cell-based", "method": "Thus, the effect of ALB-185357 (a dual inhibitor of HDAC and GSK3β) represents an additional synergism to that observed with the combination of individual agents.\nBxPC-3 pancreatic cancer cells were cultured in the presence or absence of different doses of ALB-188540 or ALB-185643 for 72 and cell survival measured by MTT assay."}, "[9]": {"tested_on": "MIA PaCa-2 pancreatic cancer cells", "test": "Cell survival with GSK3β inhibitor, HDAC inhibitor and combination", "type": "cell-based", "conditions": "FIGS. 5-7", "text": "FIG. 7 depicts, in accordance with various embodiments of the invention, effect of combination of GSK3β inhibitor tideglusib and HDAC inhibitor Saha on cell survival in pancreatic cancer cells MIA PaCa-2."}, "[10]": {"tested_on": "MIA PaCa-2 pancreatic cancer cells", "test": "EMT markers (vimentin, Twist, Snail) in pancreatic cancer cells", "type": "cell-based", "conditions": "FIG. 4", "text": "FIG. 4 depicts, in accordance with various embodiments of the invention, effect of HDAC, GSK3β inhibitions combined with gemcitabine on EMT in MIA PaCa-2 pancreatic cancer cells.\nInhibition of GSK3β induces up-regulation of EMT as shown by a measure of vimentin which is an accepted measurement for EMT (FIG. 4). This effect of GSK3β was prevented by the HDAC inhibitor Saha (FIG. 4). […] A combination of the two inhibitors with gemcitabine, a chemotherapeutic agent used in pancreatic cancer led to a complete inhibition of the EMT marker vimentin and its transcription factors (FIG. 4)."}, "pdx1-Cre-LSL-Kras mice": {"tested_on": "pdx1-Cre-LSL-Kras mice", "test": "Mouse model of pancreatic cancer (pdx1-Cre-LSL-Kras) exposed to cigarette smoke: PanIN lesions and fibrosis", "type": "in vivo", "conditions": "Saha 50 mg/Kg 5 times per week, TDZD-8 4 mg/Kg 3 times per week, 6 weeks; compared to control group", "method": "FIG. 2 depicts, in accordance with various embodiments of the invention, effect of HDAC inhibitor Saha (50 mg/Kg) and GSK3β inhibitor (4 mg/Kg) alone and in combination on reducing PanIN lesion formation.\nFIG. 3 depicts, in accordance with various embodiments of the invention, effect of HDAC inhibitor Saha (50 mg/Kg) and GSK3β inhibitor (4 mg/Kg) alone and in combination on fibrosis.\nThe inventors used a mouse model of pancreatic cancer where an oncogene call mutant K-ras is expressed in the pancreas (pdx1-Cre-LSL-Kras). These mice were exposed to cigarette smoke for 6 weeks in smoking chambers. Groups of mice were injected with GSK3β inhibitor TDZD-8 (4 mg/Kg, 3 times per week) and/or HDAC inhibitor Saha (50 mg/Kg; 5 times per week) for 6 weeks.\nThe same effect was observed when measuring fibrosis with collagen staining. Fibrosis is a measure of cancer activity."}}, "data": [{"smiles": "COc1ccc(Nc2nnc(-c3ccc(C(=O)NO)cc3)o2)cc1", "note": "[ALB-185357]", "values": [{"measurement": "expression of EMT markers N-cadherin and twist (Western)", "setting": "[1]", "value": "decreases expression"}, {"measurement": "expression of cancer stemness marker Sox2 (Western)", "setting": "[1]", "value": "decreases expression"}, {"measurement": "cell invasion", "setting": "[2]", "value": "decreases the invasion"}, {"measurement": "cell survival (cell numbers)", "setting": "Raji lymphoma cells", "value": "dose-dependently decreases cell survival"}, {"measurement": "cell survival of normal cells (MTT)", "setting": "[3]", "value": "does not affect cell survival"}, {"measurement": "GSK-3β phosphorylation/inhibition (Western)", "setting": "[4]", "value": "dose-dependently up-regulates"}, {"measurement": "histone acetylation (Western)", "setting": "[4]", "value": "dose-dependently up-regulates"}, {"measurement": "apoptosis (DNA fragmentation level)", "setting": "[5]", "value": "dose-dependently increases apoptosis"}, {"measurement": "dose at which significance of apoptosis increase was achieved", "setting": "[5]", "value": 300, "unit": "nM"}, {"measurement": "cell survival (MTT)", "setting": "[6]", "value": "dose-dependently decreases cell survival"}, {"measurement": "cell survival (MTT)", "setting": "[7]", "value": "dose-dependently decreases cell survival"}, {"measurement": "increase of mice survival", "setting": "KPC mice", "value": "at least 50%"}, {"measurement": "survival of animals with advance pancreatic cancer", "setting": "KPC mice", "value": "improves survival"}, {"measurement": "concentration at which significance of the effect on cell survival was achieved", "setting": "[8]; BxPC-3, 72 h, MTT", "value": 300, "unit": "nM"}, {"measurement": "effect on cell survival compared with combination of saha and tideglusib", "setting": "[8]; BxPC-3, 72 h, same concentration", "value": "greater than the combination"}, {"measurement": "cell survival (MTT)", "setting": "[8]; BxPC-3, cultured 72 h", "value": "dose-dependently decreased cell survival"}]}, {"smiles": "O=C(CCCCCCC(=O)Nc1ccccc1)NO", "note": "[Saha, subcroylanilide hydroxamic acid]", "values": [{"measurement": "cell survival", "setting": "[9]", "value": "dose-dependent effect"}, {"measurement": "EMT marker vimentin", "setting": "[10]", "value": "prevented"}, {"measurement": "transcription factors regulating EMT (Twist and Snail)", "setting": "[10]", "value": "inhibited"}, {"measurement": "formation of pancreatic intraepithelial neoplasia (PanIN) lesions", "setting": "pdx1-Cre-LSL-Kras mice", "value": "significantly decreased formation"}]}, {"smiles": "O=c1sn(-c2cccc3ccccc23)c(=O)n1Cc1ccccc1", "note": "[tideglusib, 4-Benzyl-2-(naphthalen-1-yl)-1,2,4-thiadiazolidine-3,5-dione]", "values": [{"measurement": "cell survival", "setting": "[9]", "value": "dose-dependent effect"}]}]}
